{"source": "patent US6028198A", "about": "(priority 1993, dated 2000)", "key": {"[1]": {"parameters": "species or system human (sailor volunteers)", "conditions": "in vivo, po"}, "[2]": {"parameters": "species or system human (volunteers)", "conditions": "in vivo"}, "[3]": {"parameters": "species or system domestic cat", "conditions": "in vivo; for Equivalent dose (ED50), preventing motion sickness-like syndrome in cats: cat, po"}, "[4]": {"parameters": "species or system human (volunteers)", "conditions": "in vivo", "remark": "listed apart in the source"}, "[5]": {"parameters": "species or system human (medical worker volunteers)", "conditions": "in vivo, po"}, "[6]": {"conditions": "mouse, in vivo"}, "[7]": {"conditions": "in vivo"}, "[8]": {"conditions": "mouse, in vivo", "remark": "listed apart in the source"}, "[9]": {"parameters": "species or system Japanese white rabbit", "conditions": "rabbit, in vivo; for Equivalent dose (ED50), preventing adversive circling syndrome in rabbits: po"}, "[10]": {"parameters": "species or system human", "conditions": "in vivo"}, "[11]": {"conditions": "mouse, in vivo", "remark": "listed apart in the source"}}, "data": [{"smiles": "OC(CCCN1CCCCC1)(c1ccccc1)c1ccccc1", "note": "[Diphenidol]", "values": [{"measurement": "Ineffective rate, Ship", "setting": "[1]", "result": 10.0, "unit": "%"}, {"measurement": "Significantly effective rate, Ship", "setting": "[1]", "result": 66.7, "unit": "%"}, {"measurement": "Total effective rate, Ship", "setting": "[1]", "result": 76.7, "unit": "%"}, {"measurement": "Effect on changes of electronystagmogram", "setting": "[2]", "result": "obvious efficacy"}, {"measurement": "Nystagmus after rotation, postmedication", "setting": "[2]; po", "result": "11.2 ± 6.2", "unit": "degree/s"}, {"measurement": "Nystagmus during rotation, postmedication", "setting": "[2]; po", "result": "6.9 ± 3.4", "unit": "degree/s"}, {"measurement": "Equivalent dose (ED50), preventing motion sickness-like syndrome in cats", "setting": "[3]", "result": 20.18, "unit": "mg/kg"}, {"measurement": "C/A (ratio of ED50 of diphenidol to that of the composition), motion sickness-like syndrome in cats", "setting": "[3]", "result": 91.3}, {"measurement": "Effect on changes of electrogastrogram of body of stomach and gastric antrum", "setting": "[4]", "result": "obvious efficacy"}, {"measurement": "Amplitude of electrogastrogram of antrum of stomach, postmedication", "setting": "[4]; po", "result": "414 ± 265", "unit": "μV"}, {"measurement": "Amplitude of electrogastrogram of body of stomach, postmedication", "setting": "[4]; po", "result": "396 ± 227", "unit": "μV"}, {"measurement": "Ineffective rate, Bus", "setting": "[5]", "result": 18.2, "unit": "%"}, {"measurement": "Significantly effective rate, Bus", "setting": "[5]", "result": 49.1, "unit": "%"}, {"measurement": "Total effective rate, Bus", "setting": "[5]", "result": 63.6, "unit": "%"}, {"measurement": "C/A (ratio of ED50), mydriatic effect in mice", "setting": "[6]", "result": 10.5}, {"measurement": "Incidence of somnolence", "setting": "[7]", "result": 18.7, "unit": "%"}, {"measurement": "C/A (ratio of ED50), inhibiting salivary secretion in mice", "setting": "[8]", "result": 13.6}, {"measurement": "C/A (ratio of ED50 of diphenidol to that of the composition), adversive circling in rabbits", "setting": "[9]", "result": "> 115"}, {"measurement": "Equivalent dose (ED50), preventing adversive circling syndrome in rabbits", "setting": "[9]", "result": "> 50", "unit": "mg/kg"}, {"measurement": "Total effective, significantly effective and ineffective rates compared with placebo", "setting": "[10]", "result": "significantly different from those of the placebo group"}, {"measurement": "C/A (ratio of ED50), potentiating sodium pentobarbital in mice", "setting": "[11]", "result": 6.9}]}, {"smiles": "CN1[C@@H]2C[C@@H](OC(=O)[C@H](CO)c3ccccc3)C[C@H]1[C@@H]1O[C@@H]12", "note": "[Scopolamine]", "values": [{"measurement": "Equivalent dose (ED50), preventing motion sickness-like syndrome in cats", "setting": "[3]", "result": 0.059, "unit": "mg/kg"}, {"measurement": "B/A (ratio of ED50 of scopolamine to that of the composition), motion sickness-like syndrome in cats", "setting": "[3]", "result": 0.30}, {"measurement": "B/A (ratio of ED50), mydriatic effect in mice", "setting": "[6]", "result": 0.072}, {"measurement": "B/A (ratio of ED50), inhibiting salivary secretion in mice", "setting": "[8]", "result": 0.13}, {"measurement": "B/A (ratio of ED50 of scopolamine to that of the composition), adversive circling in rabbits", "setting": "[9]", "result": 0.30}, {"measurement": "Equivalent dose (ED50), preventing adversive circling syndrome in rabbits", "setting": "[9]", "result": 0.129, "unit": "mg/kg"}, {"measurement": "B/A (ratio of ED50), potentiating sodium pentobarbital in mice", "setting": "[11]", "result": 0.24}]}]}
